Data taken from ChEMBL document CHEMBL1681651, “A broad spectrum anticancer nucleoside with selective toxicity against human colon cells in vitro” (2011).
Values joined by “and” are separate entries in the source; they are usually repeats but may differ in a detail not shown here. Identical values can stand only once.

How the values were obtained:
Type in all cases: functional
SK-MEL-2 = assay: Growth inhibition of human SK-MEL-2 cells assessed as cell growth at 0.1 uM after 48 hrs by SRB assay; details: SK-MEL-2, 48 h, read-out: Activity
NCI-H322M = assay: Growth inhibition of human NCI-H322M cells assessed as cell growth at 1 uM after 48 hrs by SRB assay; details: read-out: Activity
HCT-116 = assay: Growth inhibition of human HCT116 cells assessed as cell growth at 10 uM after 48 hrs by SRB assay; details: HCT-116, 48 h, read-out: Activity
SN12C = assay: Growth inhibition of human SN12C cells assessed as cell growth at 1 mM after 48 hrs by SRB assay; details: read-out: Activity
[1] = Growth inhibition of human […] cells assessed as cell growth at 1 mM after 48 hrs by SRB assay; details: read-out: Activity
ACHN = assay: Growth inhibition of human ACHN cells assessed as cell growth at 100 uM after 48 hrs by SRB assay; details: read-out: Activity
NCI-H460 = assay: Growth inhibition of human NCI-H460 cells after 48 hrs by […] growth inhibition assay; details: NCI-H460, 48 h
M14 = assay: Growth inhibition of human M14 cells assessed as cell growth at 100 uM after 48 hrs by SRB assay; details: M14, 48 h, read-out: Activity
MCF7 [2] = assay: Growth inhibition of human MCF7 cells assessed as cell growth at 1 mM after 48 hrs by SRB assay; set-up: Activity: scale not given: the % may be the effect or the level left
PC-3 = assay: Growth inhibition of human PC3 cells assessed as cell growth at 1 mM after 48 hrs by SRB assay; details: PC-3, 48 h, read-out: Activity
HCT-15 = assay: Growth inhibition of human HCT15 cells assessed as cell growth at 0.1 uM after 48 hrs by SRB assay; details: HCT-15, 48 h, read-out: Activity
SNB-75 = assay: Growth inhibition of human SNB75 cells assessed as cell growth at 100 uM after 48 hrs by SRB assay; details: SNB-75, 48 h, read-out: Activity
UACC-62 = assay: Growth inhibition of human UACC62 cells assessed as cell growth at 0.1 uM after 48 hrs by SRB assay; details: UACC-62, 48 h, read-out: Activity
MDA-MB-468 = assay: Growth inhibition of human MDA-MB-468 cells assessed as cell growth at 10 uM after 48 hrs by SRB assay; details: MDA-MB-468, 48 h, read-out: Activity
A549 = assay: Growth inhibition of human A549 cells assessed as cell growth at 10 uM after 48 hrs by SRB assay; details: A549, 48 h, read-out: Activity
MCF7 [3] = assay: Growth inhibition of human MCF7 cells assessed as cell growth at 1 uM after 48 hrs by SRB assay; details: MCF7, 48 h, read-out: Activity
[4] = Growth inhibition of human Hs 578T cells assessed as cell growth at 10 uM after 48 hrs by SRB assay; details: read-out: Activity

Q: Which results are given for CNC(=O)NC[C@H]1O[C@@H](n2cnc3c(NC(=O)Nc4ccccc4)ncnc32)[C@H](O[Si](C)(C)C(C)(C)C)[C@@H]1O[Si](C)(C)C(C)(C)C?
A: growth at 0.1 µM (SK-MEL-2): 108%; growth at 1 µM (NCI-H322M): 106%; growth at 10 µM (HCT-116): 102%; growth at 1000 µM (SN12C): -90%; growth at 1000 µM [1]: 4%; growth at 100 µM (ACHN): 10%; GI50 (NCI-H460; read-out: GI50): 1.72 µM; CC50 (NCI-H460; read-out: LC50 (the source's name)): 7.11 µM; TGI (NCI-H460; read-out: TGI): 3.49 µM; GI50 (NCI-H460; read-out: pGI50 (converted)): 1.7 µM; CC50 (NCI-H460; read-out: pLC50 (the source's name) (converted)): 7.08 µM; TGI (NCI-H460; read-out: pTGI (converted)): 3.47 µM; growth at 100 µM (M14): 19%; Activity (MCF7 [2]): -21% and -16%; growth at 1000 µM (PC-3): 4%; growth at 0.1 µM (HCT-15): 105%; growth at 100 µM (SNB-75): 14%; growth at 0.1 µM (UACC-62): 102%; growth at 10 µM (MDA-MB-468): 99%; growth at 10 µM (A549): 90%; growth at 1 µM (MCF7 [3]): 96%

Q: For CNC(=O)OC[C@H]1O[C@@H](n2cnc3c(NC(=O)Nc4ccccc4)ncnc32)[C@H](O[Si](C)(C)C(C)(C)C)[C@@H]1O[Si](C)(C)C(C)(C)C, which growth at 10 µM (HCT-116) is on record?
A: 66.7%

Q: And the growth at 10 µM [4]?
A: 97.6%

Q: And the growth at 10 µM (MDA-MB-468)?
A: 104%

Q: What about the growth at 10 µM (A549) of the same compound?
A: 80.8%
